Laboratory results: paper PMC10057847, “Precision engineering of biological function with large-scale measurements and machine learning” (PLOS ONE, 2023)

Molecular target: T1, pVER-IPTG-WT (Escherichia coli, UniProt P03023)
T1 construct: gene lacI; full-length LacI expressed from pVER plasmid; wild type
Experiment: In vivo IPTG dose-response of LacI-regulated eYFP expression from the pVER plasmid in E. coli grown in rich M9 medium at 37 °C, measured by flow cytometry and fitted to the Hill equation by Bayesian MCMC (posterior mean and SD).
Type: cell-based
Conditions: read-out: log_ec50 (base-10 logarithm of EC50 in μmol/L) (converted)
Description: All reported measurements were completed using E. coli strain MG1655Δlac, in which the lactose operon of E. coli strain MG1655 (ATCC #47076) was replaced with the bleomycin resistance gene from Streptoalloteichus hindustanus (Shble).
Dose-response curves were measured with flow cytometry using E. coli MG1655Δlac transformed with variants of the pVER plasmid, described previously. The plasmid contained different variants of the lacI coding DNA sequence (CDS), as described in the text, and an expression cassette with enhanced yellow fluorescent protein (eYFP) under the control of the lactose operator (lacO). The lacI CDS was verified with Sanger sequencing for each variant. […]
Flow cytometry samples were measured with an Attune NxT flow cytometer equipped with a 96-well plate autosampler using a 488 nm excitation laser and a 530 nm ± 15 nm bandpass emission filter. Blank samples were measured with each batch of cell measurements, and an automated gating algorithm was used to discriminate cell events from non-cell events. Fluorescence calibration beads (Spherotech, part no. RCP-30-20A) were also measured with each batch of samples to facilitate calibration of flow cytometry data to molecules of equivalent fluorescein (MEF). […]

T1 sequence (P03023 whole entry): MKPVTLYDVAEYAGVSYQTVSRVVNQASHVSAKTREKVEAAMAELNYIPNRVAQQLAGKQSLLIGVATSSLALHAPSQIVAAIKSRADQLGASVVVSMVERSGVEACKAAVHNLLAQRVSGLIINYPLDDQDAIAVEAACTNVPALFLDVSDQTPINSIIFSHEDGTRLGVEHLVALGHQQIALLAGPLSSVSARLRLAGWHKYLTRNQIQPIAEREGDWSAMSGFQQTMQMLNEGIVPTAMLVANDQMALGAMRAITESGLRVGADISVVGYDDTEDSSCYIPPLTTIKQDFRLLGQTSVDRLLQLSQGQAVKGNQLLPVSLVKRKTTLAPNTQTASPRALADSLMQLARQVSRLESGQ

`CC(C)S[C@@H]1O[C@H](CO)[C@H](O)[C@H](O)[C@H]1O` [IPTG, isopropyl-β-D-thiogalactopyranoside] showed an EC50 of 119 µmol/L.
